For series [1], the target named is phospholipase C (alpha toxin produced by Clostridium perfringens) (Clostridium perfringens, UniProt P0C216). The conditions noted are these: cited from earlier work.
In a further series the test system is C. perfringens. Format: in vivo, broiler chicks. Particulars: 50 g/t in feed, challenged.
A further series deals with Clostridium perfringens. Format: cell-based. Particulars: FIC plates.

For `O=C(O)CN(CCN(CC(=O)O)CC(=O)O)CC(=O)O` [EDTA], the “effect on enzymatic activity of phospholipase C” value in series [1] is “direct inhibitory effect”.
Regarding bacitracin methylene disalicylate [BMD], in the series with C. perfringens, the “Feed Consum.” value is 14.000, the “Feed Conv.” value stood at 1.659, the “NE Mort.” value is 2 and the “Wt. Gain D 5 to D 14” value worked out at 0.252 kg. Besides, in the series with C. perfringens, the “Wt. Gain D 5 to D 27” value is 0.946 kg and the “Wt. Gain D 14 to D 27” value was found to be 0.694 kg. In addition, in the series on C. perfringens (0 normal, 3 most severe), the “Lesion Score (0 to 3) Day 22” value is listed as 0.0 and the “Lesion Score (0 to 3) Day 27” value was determined as 0.3.
For the compound lysozyme, in the series with Clostridium perfringens (100 times dilution of overnight culture, no nisin), the lysozyme effective alone result is listed as “approximately 120 ppm”. For the same compound, in the series on Clostridium perfringens (in combination with nisin 3 ppm), the “lysozyme required to achieve a bactericidal effect” value was found to be 8 ppm. Besides, the “effect on enzymatic activity of phospholipase C” value in series [1] is “direct inhibitory effect”.

The values above are taken from patent publication US20110014178A1 (priority 2002, published 2011).
